Measurements reported in patent US7842719B2 (priority 2002, dated 2010).
≈ marks a conversion by molar mass, not a printed value.

How the values were obtained:
[1] = system: CMV Davis; type: cell-based, human cytomegalovirus
[2] = system: Molt4/C8; type: cell-based, human
[3] = system: HSV-2 (G); type: cell-based, herpes simplex virus
[4] = system: VZV OKA; type: cell-based, varicella zoster virus
[5] = system: MDBK cells
[6] = system: HSV-1 (KOS); type: cell-based, herpes simplex virus
[7] = system: CMV AD-169; type: cell-based, human cytomegalovirus
[8] = system: VZV YS; type: cell-based, varicella zoster virus
[9] = system: FM3A/0; type: cell-based, murine
[10] = system: VV; type: cell-based, vaccinia virus
[11] = system: BVDV-strain Pe515; type: cell-based, bovine viral diarrhea virus
[12] = system: HIV-1 (IIIB); type: cell-based, human immunodeficiency virus
[13] = system: CEM/0; type: cell-based, human
[14] = system: HIV-2 (ROD); type: cell-based, human immunodeficiency virus
[15] = system: L1210/0; type: cell-based, murine
[16] = system: BVDV I cp; type: cell-based, Bovine viral diarrhea virus
[17] = system: Non infected cells
[18] = system: BDV; type: cell-based, Border disease virus

## C[C@@H]1CC[C@H]2[C@@H](C)C(=O)O[C@@H]3O[C@@]4(C)CC[C@@H]1[C@]32OO4 [Artemisinin, artemisinin]
[1]
  EC50 CMV Davis (HEL): >50 µg/mL
[2]
  activity against tumor cell line: no interesting activity
[3]
  EC50 HSV-2 (G) (E6SM): 240 µg/mL (≈ 850 µM)
  antiviral activity against HSV-2: showed antiviral activity
[4]
  EC50 VZV (HEL) OKA: >50 µg/mL
[5]
  cell toxicity: stayed low
[6]
  EC50 HSV-1 (KOS) (E6SM): >400 µg/mL
[7]
  EC50 CMV AD-169 (HEL): >50 µg/mL
[8]
  EC50 VZV (HEL) YS: >50 µg/mL
[9]
  activity against tumor cell line: no interesting activity
[10]
  EC50 VV (E6SM): 240 µg/mL (≈ 850 µM)
  antiviral activity against VV: showed antiviral activity
[11]
  EC50 BVDV: 0.4 µg/mL (≈ 1.42 µM)
  activity against BVDV: strong anti-viral activity
[12]
  EC50 HIV-1 (IIIB) (CEM): >20 µg/mL
[13]
  activity against tumor cell line: no interesting activity
[14]
  EC50 HIV-2 (ROD) (CEM): >20 µg/mL
[15]
  activity against tumor cell line: no interesting activity

## C[C@H]1[C@H](OC(=O)CCC(=O)O)O[C@@H]2O[C@@]3(C)CC[C@H]4[C@H](C)CC[C@@H]1[C@@]24OO3 [Artensunate, artesunate]
[5]
  MTC MDBK (minimal toxic concentration): 0.4 µg/mL
  cell toxicity: stayed low
[11]
  EC50 BVDV: 0.07 µg/mL (≈ 0.182 µM)
  activity against BVDV: strong anti-viral activity

## CO[C@H]1O[C@@H]2O[C@@]3(C)CC[C@H]4[C@H](C)CC[C@@H]([C@H]1C)[C@@]24OO3 [Artemether, artemether]
[5]
  cell toxicity: stayed low
[16]
  EC90: 0.16 µg/mL (≈ 0.536 µM)
[11]
  EC50 BVDV: 0.3 µg/mL (≈ 1.01 µM)
  activity against BVDV: strong anti-viral activity
[17]
  toxic concentration: around 100 μg/ml
[18]
  EC90: 0.8 µg/mL (≈ 2.68 µM)

## C[C@H]1[C@@H](O)O[C@@H]2O[C@@]3(C)CC[C@H]4[C@H](C)CC[C@@H]1[C@@]24OO3 [Dihydroartemisinin, dihydroartemisinin]
[5]
  MTC MDBK (minimal toxic concentration): 0.4 µg/mL
  cell toxicity: stayed low
[11]
  EC50 BVDV: 0.05 µg/mL (≈ 0.176 µM)
  activity against BVDV: strong anti-viral activity
